Assays:
corn = test: Test B pre/postemergence corn; assay type: in vivo, Zea mays
Method in brief: (§1)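 Test chemicals in a non-phytotoxic solvent mixture with surfactant were sprayed preemergence onto planted seeds and postemergence onto plants 2 to 18 cm tall (1- to 4-leaf stage). After twelve to sixteen days in a greenhouse, injury was visually rated against untreated controls from 0 (no effect) to 10 (complete control).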

rice = test: Test B flood test rice; assay type: in vivo, Oryza sativa
Method in brief: (§2)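 Plants were grown to the 2-leaf stage before treatment with test chemical, then held in a greenhouse for twelve to sixteen days. Injury was visually rated against untreated controls on a 0–10 scale, where 0 is no effect and 10 is complete control.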

surinam grass = test: Test B pre/postemergence surinam grass; assay type: in vivo, Brachiaria decumbens
Method in brief: as §1

purple nutsedge = test: Test B pre/postemergence purple nutsedge; assay type: in vivo, Cyperus rotundus
Method in brief: as §1

pigweed = test: Test B pre/postemergence pigweed; assay type: in vivo, Amaranthus retroflexus
Method in brief: as §1

giant foxtail = test: Test B pre/postemergence giant foxtail; assay type: in vivo, Setaria faberii
Method in brief: as §1

duck salad = test: Test B flood test duck salad; assay type: in vivo, Heteranthera limosa
Method in brief: as §2

smallflower flatsedge = test: Test B flood test smallflower flatsedge; assay type: in vivo, Cyperus difformis
Method in brief: as §2

soybean = test: Test B pre/postemergence soybean; assay type: in vivo, Glycine max
Method in brief: as §1

rape = test: Test B pre/postemergence rape; assay type: in vivo, Brassica napus
Method in brief: as §1

bamyardgrass = test: Test B flood test barnyardgrass; assay type: in vivo, Echinochloa crus-galli
Method in brief: as §2

wild oat = test: Test B pre/postemergence wild oat; assay type: in vivo, Avena fatua
Method in brief: as §1

morningglory = test: Test B pre/postemergence morningglory; assay type: in vivo, Ipomoea hederacea
Method in brief: as §1

sugar beet = test: Test B pre/postemergence sugar beet; assay type: in vivo, Beta vulgaris
Method in brief: as §1

crabgrass = test: Test B pre/postemergence crabgrass; assay type: in vivo, Digitaria sanguinalis
Method in brief: as §1

cocklebur = test: Test B pre/postemergence cocklebur; assay type: in vivo, Xanthium strumarium
Method in brief: as §1

[1] = Preemergence, Rate 62 g/ha, scale of 0 to 10 where 0 is no effect and 10 is complete control
[2] = Preemergence, Rate 250 g/ha, scale of 0 to 10 where 0 is no effect and 10 is complete control
[3] = Preemergence, Rate 500 g/ha, scale of 0 to 10 where 0 is no effect and 10 is complete control
[4] = Rate 62 g/ha, Postemergence, scale of 0 to 10 where 0 is no effect and 10 is complete control
[5] = Rate 125 g/ha, Postemergence, scale 0 to 10
[6] = Rate 125 g/ha, Preemergence, scale of 0 to 10 where 0 is no effect and 10 is complete control
[7] = Rate 500 g/ha, Postemergence, scale 0 to 10, 0 no effect, 10 complete control
[8] = Rate 62 g/ha, headed Pre-emergence (flood test species), scale 0 to 10 (0 no effect, 10 complete control)
[9] = Rate 125 g/ha, Pre-emergence, flood test species, scale 0 to 10 where 0 is no effect and 10 is complete control
[10] = Rate 250 g/ha, Pre-emergence, flood-test species, scale 0 to 10, 0 is no effect, 10 is complete control
[11] = Rate 500 g/ha, Pre-emergence, flood test species, scale 0 to 10 (0 no effect, 10 complete control)

With `Cc1nc(C)c(Cn2c(=O)on(C(=O)N(c3ccc(F)cc3F)C(C)C)c2=O)s1` [Compound 233] the “Corn plant response rating” value (corn; [1]) was 0, the “Corn plant response rating” value (corn; [2]) was 0 and the “Plant response rating, Corn” value (corn; [3]) was 0. The “Corn plant response rating” value (corn; [4]) was 0, the “Corn plant response rating” value (corn; [5]) was 0 and the “Corn plant response rating” value (corn; [6]) was 0. The “Plant response rating (0 to 10; 0 is no effect, 10 is complete control), Corn” value (corn; Rate 250 g/ha, Postemergence) was 0, the “Corn plant response rating” value (corn; [7]) was 0 and the “Rice plant response rating” value (rice; [8]) was 0. For the same compound, the “Rice plant response rating” value (rice; [9]) was 0, the “Rice plant response rating” value (rice; [10]) was 0 and the “Rice plant response rating” value (rice; [11]) was 0. For the same compound, the “B. signalgrass plant response rating” value (surinam grass; [1]) was 0, the “B. signalgrass plant response rating” value (surinam grass; Preemergence, Rate 250 g/ha, scale 0 to 10, 0 is no effect, 10 is complete control) was 4 and the “Plant response rating, B. signalgrass” value (surinam grass; [3]) was 4. The “B. signalgrass plant response rating” value (surinam grass; [4]) was 0, the “B. signalgrass plant response rating” value (surinam grass; Rate 125 g/ha, Postemergence, scale 0 (no effect) to 10 (complete control)) was 0 and the “B. signalgrass plant response rating” value (surinam grass; [6]) was 2. The “Plant response rating (0 to 10; 0 is no effect, 10 is complete control), B. signalgrass” value (surinam grass; Rate 250 g/ha, Postemergence) was 0, the “B. signalgrass plant response rating” value (surinam grass; [7]) was 1 and the “Nutsedge plant response rating” value (purple nutsedge; [1]) was 0. The “Nutsedge plant response rating” value (purple nutsedge; [2]) was 0, the “Nutsedge plant response rating” value (purple nutsedge; [4]) was 0 and the “Nutsedge plant response rating” value (purple nutsedge; [5]) was 0. The “Plant response rating (0 to 10; 0 is no effect, 10 is complete control), Nutsedge” value (purple nutsedge; Rate 250 g/ha, Postemergence) was 0, the “Nutsedge plant response rating” value (purple nutsedge; [7]) was 0 and the “Redroot pigweed plant response rating” value (pigweed; [1]) was 3. The “Redroot pigweed plant response rating” value (pigweed; [2]) was 7, the “Plant response rating, Redroot pigweed” value (pigweed; [3]) was 8 and the “Redroot pigweed plant response rating” value (pigweed; [4]) was 0. The “Redroot pigweed plant response rating” value (pigweed; [5]) was 0, the “Redroot pigweed plant response rating” value (pigweed; [6]) was 6 and the “Plant response rating (0 to 10; 0 is no effect, 10 is complete control), Redroot pigweed” value (pigweed; Rate 250 g/ha, Postemergence) was 2. The “Redroot pigweed plant response rating” value (pigweed; [7]) was 4, the “Giant foxtail plant response rating” value (giant foxtail; [1]) was 7 and the “Giant foxtail plant response rating” value (giant foxtail; [2]) was 9. For the same compound, the “Plant response rating, Giant foxtail” value (giant foxtail; [3]) was 10, the “Giant foxtail plant response rating” value (giant foxtail; [4]) was 0 and the “Giant foxtail plant response rating” value (giant foxtail; [5]) was 0. For the same compound, the “Giant foxtail plant response rating” value (giant foxtail; [6]) was 7, the “Plant response rating (0 to 10; 0 is no effect, 10 is complete control), Giant foxtail” value (giant foxtail; Rate 250 g/ha, Postemergence) was 3 and the “Giant foxtail plant response rating” value (giant foxtail; [7]) was 6. The “Ducksalad plant response rating” value (duck salad; [8]) was 0, the “Ducksalad plant response rating” value (duck salad; [9]) was 0 and the “Ducksalad plant response rating” value (duck salad; [10]) was 0. The “Ducksalad plant response rating” value (duck salad; [11]) was 0, the “S. Flatsedge plant response rating” value (smallflower flatsedge; [8]) was 0 and the “S. Flatsedge plant response rating” value (smallflower flatsedge; [9]) was 0. The “S. Flatsedge plant response rating” value (smallflower flatsedge; [10]) was 0, the “S. Flatsedge plant response rating” value (smallflower flatsedge; [11]) was 0 and the “Soybean plant response rating” value (soybean; [1]) was 0. For the same compound, the “Soybean plant response rating” value (soybean; [2]) was 0, the “Plant response rating, Soybean” value (soybean; [3]) was 0 and the “Soybean plant response rating” value (soybean; [4]) was 3. For the same compound, the “Soybean plant response rating” value (soybean; [5]) was 3, the “Soybean plant response rating” value (soybean; [6]) was 0 and the “Plant response rating (0 to 10; 0 is no effect, 10 is complete control), Soybean” value (soybean; Rate 250 g/ha, Postemergence) was 3. For the same compound, the “Soybean plant response rating” value (soybean; [7]) was 5, the “Rape plant response rating” value (rape; [1]) was 0 and the “Rape plant response rating” value (rape; [2]) was 0. The “Plant response rating, Rape” value (rape; [3]) was 3, the “Rape plant response rating” value (rape; [4]) was 2 and the “Rape plant response rating” value (rape; [5]) was 2. The “Rape plant response rating” value (rape; [6]) was 0, the “Plant response rating (0 to 10; 0 is no effect, 10 is complete control), Rape” value (rape; Rate 250 g/ha, Postemergence) was 2 and the “Rape plant response rating” value (rape; [7]) was 3. For the same compound, the “Barnyardgrass plant response rating” value (bamyardgrass; [8]) was 0, the “Barnyardgrass plant response rating” value (bamyardgrass; [9]) was 0 and the “Barnyardgrass plant response rating” value (bamyardgrass; [10]) was 0. The “Barnyardgrass plant response rating” value (bamyardgrass; [11]) was 0, the “Wild oats plant response rating” value (wild oat; [1]) was 0 and the “Wild oats plant response rating” value (wild oat; [2]) was 2. For the same compound, the “Plant response rating, Wild oats” value (wild oat; [3]) was 6, the “Wild oats plant response rating” value (wild oat; [4]) was 0 and the “Wild oats plant response rating” value (wild oat; [5]) was 0. For the same compound, the “Wild oats plant response rating” value (wild oat; [6]) was 1, the “Plant response rating (0 to 10; 0 is no effect, 10 is complete control), Wild oats” value (wild oat; Rate 250 g/ha, Postemergence) was 2 and the “Wild oats plant response rating” value (wild oat; [7]) was 2. The “Morningglory plant response rating” value (morningglory; [1]) was 0, the “Morningglory plant response rating” value (morningglory; [2]) was 0 and the “Plant response rating, Morningglory” value (morningglory; [3]) was 2. For the same compound, the “Morningglory plant response rating” value (morningglory; [4]) was 3, the “Morningglory plant response rating” value (morningglory; [5]) was 3 and the “Morningglory plant response rating” value (morningglory; [6]) was 0. For the same compound, the “Plant response rating (0 to 10; 0 is no effect, 10 is complete control), Morningglory” value (morningglory; Rate 250 g/ha, Postemergence) was 3, the “Morningglory plant response rating” value (morningglory; [7]) was 8 and the “Sugarbeets plant response rating” value (sugar beet; [1]) was 0. The “Sugarbeets plant response rating” value (sugar beet; [2]) was 4, the “Plant response rating, Sugarbeets” value (sugar beet; [3]) was 8 and the “Sugarbeets plant response rating” value (sugar beet; [4]) was 0. For the same compound, the “Sugarbeets plant response rating” value (sugar beet; [5]) was 0, the “Sugarbeets plant response rating” value (sugar beet; [6]) was 0 and the “Plant response rating (0 to 10; 0 is no effect, 10 is complete control), Sugarbeets” value (sugar beet; Rate 250 g/ha, Postemergence) was 0. The “Sugarbeets plant response rating” value (sugar beet; [7]) was 4, the “Crabgrass plant response rating” value (crabgrass; [1]) was 5 and the “Crabgrass plant response rating” value (crabgrass; [2]) was 9. The “Plant response rating, Crabgrass” value (crabgrass; [3]) was 10, the “Crabgrass plant response rating” value (crabgrass; [4]) was 0 and the “Crabgrass plant response rating” value (crabgrass; [5]) was 0. The “Crabgrass plant response rating” value (crabgrass; [6]) was 6, the “Plant response rating (0 to 10; 0 is no effect, 10 is complete control), Crabgrass” value (crabgrass; Rate 250 g/ha, Postemergence) was 1 and the “Crabgrass plant response rating” value (crabgrass; [7]) was 6. For the same compound, the “Cocklebur plant response rating” value (cocklebur; [1]) was 0, the “Cocklebur plant response rating” value (cocklebur; [2]) was 0 and the “Plant response rating, Cocklebur” value (cocklebur; [3]) was 0. The “Cocklebur plant response rating” value (cocklebur; [4]) was 0, the “Cocklebur plant response rating” value (cocklebur; [5]) was 2 and the “Cocklebur plant response rating” value (cocklebur; [6]) was 0. For the same compound, the “Plant response rating (0 to 10; 0 is no effect, 10 is complete control), Cocklebur” value (cocklebur; Rate 250 g/ha, Postemergence) was 2 and the “Cocklebur plant response rating” value (cocklebur; [7]) was 2.

— patent publication US6737383B1, “Herbicidal oxadiazolidines” (priority 1999, dated 2004)
